Publication PMC9873984, “Membrane cholesterol regulates inhibition and substrate transport by the glycine transporter, GlyT2” (Life Science Alliance, 2023)

System: Xenopus laevis oocytes
Test: Quantification of cholesterol content of oocytes (Amplex Red)
Assay type: cell-based
Conditions: 15 mM for 30 min at 32°C; normalized to control oocytes
Procedure: The cell was then unclamped and removed from the electrophysiology rig and placed in an incubator at 32°C in a solution containing 15 mM MβCD for 30 min. The oocyte was then replaced in the electrophysiology rig and washed for 10 min in recording buffer, the voltage clamp was re-established, and the glycine transport currents were remeasured. […] Under these conditions, MβCD caused a 44% reduction in membrane cholesterol content, which is consistent with previous studies in oocytes (Fig 4) ([Santiago et al, 2001]; [Sadler & Jacobs, 2004]).
Figure 4. Cholesterol levels of control and MβCD-treated Xenopus laevis oocytes. Groups of six oocytes were incubated in 0 mM (control) or 15 mM MβCD for 30 min at 32°C. After incubation, oocytes were lysed in 1% Triton X-100 by vortexing and manually disrupting the membranes with forceps. Cell lysates were centrifuged, and the cholesterol content of the supernatant was quantified using the Amplex Red method. […]
Control and MβCD-treated oocytes were lysed in 1% Triton X-100 (Sigma-Aldrich) by vortexing and manually disrupting the membranes with forceps. […] The supernatant was then treated in accordance with the manufacturer’s protocol for the Amplex Red Cholesterol Assay Kit (Thermo Fisher Scientific) to quantify differences in cholesterol content.

methyl-β-cyclodextrin [MβCD]
Reduction in membrane cholesterol content: 44%
